Calls of active or inactive are those of the source. The rule behind the calls is not given here.
Legend:
[1] = tested on: Rattus norvegicus; experiment: Inhibition of the IgE-mediated passive cutaneous anaphylaxis (PCA) reaction in rat after intravenous administration; Range 0.058-0.12; assay type: functional
[2] = tested on: Rattus norvegicus; experiment: Inhibition of the IgE-mediated passive cutaneous anaphylaxis (PCA) reaction in rat after oral administration; Inactive(45% inhibition at 20 mg/kg); assay type: functional
[3] = tested on: Rattus norvegicus; experiment: Inhibition of the IgE-mediated passive cutaneous anaphylaxis (PCA) reaction in rat after intravenous administration; Range 0.20-0.35; assay type: functional
[4] = tested on: Rattus norvegicus; experiment: Inhibition of the IgE-mediated passive cutaneous anaphylaxis (PCA) reaction in rat after oral administration; Range 4.38-21.4; assay type: functional
[5] = tested on: Rattus norvegicus; experiment: Inhibition of the IgE-mediated passive cutaneous anaphylaxis (PCA) reaction in rat after intravenous administration; Range 0.91-3.86; assay type: functional
[6] = tested on: Rattus norvegicus; experiment: Inhibition of the IgE-mediated passive cutaneous anaphylaxis (PCA) reaction in rat after intravenous administration; Inactive at 1 and 10 mg/kg; assay type: functional, organism-based; set-up: dose 10 mg/kg
[7] = tested on: Rattus norvegicus; experiment: Inhibition of the IgE-mediated passive cutaneous anaphylaxis (PCA) reaction in rat after intravenous administration; Range 1.61-7; assay type: functional
[8] = tested on: Rattus norvegicus; experiment: Inhibition of the IgE-mediated passive cutaneous anaphylaxis (PCA) reaction in rat after oral administration; Inactive(50% inhibition at 10 mg/kg); assay type: functional
[9] = tested on: Rattus norvegicus; experiment: Inhibition of the IgE-mediated passive cutaneous anaphylaxis (PCA) reaction in rat after intravenous administration; Range 0.023-0.11; assay type: functional
[10] = tested on: Rattus norvegicus; experiment: Inhibition of the IgE-mediated passive cutaneous anaphylaxis (PCA) reaction in rat after intravenous administration; NA means inactive at 1 and 10 mg/Kg; assay type: functional, organism-based
[11] = tested on: Rattus norvegicus; experiment: Inhibition of the IgE-mediated passive cutaneous anaphylaxis (PCA) reaction in rat after intravenous administration; Range 1.04-1.42; assay type: functional
[12] = tested on: Rattus norvegicus; experiment: Inhibition of the IgE-mediated passive cutaneous anaphylaxis (PCA) reaction in rat after oral administration; NA means Inactive; assay type: functional, organism-based
[13] = tested on: Rattus norvegicus; experiment: Inhibition of the IgE-mediated passive cutaneous anaphylaxis (PCA) reaction in rat after oral administration; NA means inactive 1 and 10 mg/kg; assay type: functional, organism-based; set-up: dose 10 mg/kg
[14] = tested on: Rattus norvegicus; experiment: Inhibition of the IgE-mediated passive cutaneous anaphylaxis (PCA) reaction in rat after oral administration; Range 0.74-2.02; assay type: functional
[15] = tested on: Rattus norvegicus; experiment: Inhibition of the IgE-mediated passive cutaneous anaphylaxis (PCA) reaction in rat after oral administration; Inactive at 1 and 10 mg/kg; assay type: functional, organism-based; set-up: dose 10 mg/kg
[16] = tested on: Rattus norvegicus; experiment: Inhibition of the IgE-mediated passive cutaneous anaphylaxis (PCA) reaction in rat after oral administration; Inactive at 10 mg/kg; assay type: functional, organism-based; set-up: dose 10 mg/kg
[17] = tested on: Rattus norvegicus; experiment: Inhibition of the IgE-mediated passive cutaneous anaphylaxis (PCA) reaction in rat after intravenous administration; Range 0.021-0.03; assay type: functional
[18] = tested on: Rattus norvegicus; experiment: Inhibition of the IgE-mediated passive cutaneous anaphylaxis (PCA) reaction in rat after oral administration; Range 4.65-18.7; assay type: functional
[19] = tested on: Rattus norvegicus; experiment: Inhibition of the IgE-mediated passive cutaneous anaphylaxis (PCA) reaction in rat after intravenous administration; Range 0.022-0.04; assay type: functional
[20] = tested on: Rattus norvegicus; experiment: Inhibition of the IgE-mediated passive cutaneous anaphylaxis (PCA) reaction in rat after oral administration; NA means inactive at 1 and 10 mg/Kg; assay type: functional, organism-based
[21] = tested on: Rattus norvegicus; experiment: Inhibition of the IgE-mediated passive cutaneous anaphylaxis (PCA) reaction in rat after intravenous administration; Inactive; assay type: functional, organism-based
[22] = tested on: Rattus norvegicus; experiment: Inhibition of the IgE-mediated passive cutaneous anaphylaxis (PCA) reaction in rat after intravenous administration; Range 2.74-6.94; assay type: functional
[23] = tested on: Rattus norvegicus; experiment: Inhibition of the IgE-mediated passive cutaneous anaphylaxis (PCA) reaction in rat after intravenous administration; Range 0.058-0.15; assay type: functional
[24] = tested on: Rattus norvegicus; experiment: Inhibition of the IgE-mediated passive cutaneous anaphylaxis (PCA) reaction in rat after intravenous administration; Range 0.19-0.59; assay type: functional
[25] = tested on: Rattus norvegicus; experiment: Inhibition of the IgE-mediated passive cutaneous anaphylaxis (PCA) reaction in rat after oral administration; Inactive; assay type: functional, organism-based
[26] = tested on: Rattus norvegicus; experiment: Inhibition of the IgE-mediated passive cutaneous anaphylaxis (PCA) reaction in rat after intravenous administration; Range 1.14-3.89; assay type: functional

With `O=C(O)c1nnn2c1c(O)nc1ccccc12` the ED50 [1] was 0.084 mg/kg and the inhibition in vivo at 20 mg/kg [2] was 45%.
In the case of `O=C(O)c1cn2c(ccc3cc([N+](=O)[O-])ccc32)n1`, the ED50 [3] is reported as 0.28 mg/kg.
With `CC1Oc2ccccc2-n2cc(C(=O)O)nc21` (centres undefined) the ED50 [4] was 8.46 mg/kg and the ED50 [5] was 1.76 mg/kg.
For `COc1ccc2ccc3nc(C(=O)Nc4nn[nH]n4)cn3c2c1`, the ED50 [6] was “inactive”.
`CCC1Oc2ccccc2-n2cc(C(=O)O)nc21` (centres undefined) was tested, and the ED50 [7] was 2.6 mg/kg.
`COc1ccc2c(OC(C)C)cc3nc(C(=O)O)cn3c2c1` showed an inhibition in vivo at 10 mg/kg [8] of 50%.
`CSc1cc2nc(C(=O)O)cn2c2ccccc12` was tested, and the ED50 [9] was 0.046 mg/kg.
For `CCOC(=O)c1c(C(=O)OC)nc2n1-c1ccccc1OC2`, the ED50 [10] was “inactive”.
For `O=C([O-])c1cc(=O)c2c(OCC(O)COc3cccc4oc(C(=O)[O-])cc(=O)c34)cccc2o1.[Na+].[Na+]` [CROMOLYN SODIUM], the ED50 [11] was 1.21 mg/kg and the ED50 [12] was “inactive”.
`O=C(O)c1cc2c(ccc3ccccc32)s1` was tested, and the ED50 [6] was “inactive”.
In the case of `O=C(O)c1nc2n(c1C(=O)N1CCOCC1)-c1ccccc1OC2`, the ED50 [10] is reported as “inactive”.
In the case of `N#Cc1cn2c(n1)COc1ccccc1-2`, the ED50 [13] is reported as “inactive”.
`CCCn1c(=O)c2nc(C(=O)OCC)cn2c2ccccc21` was tested, and the ED50 [14] was 1.21 mg/kg.
For `Cc1c(C(=O)O)nc2cc(Cl)c3ccccc3n12`, the ED50 [15] was “inactive”.
With `O=C(O)c1cn2c(n1)c(CO)cc1ccccc12` the ED50 [6] was “inactive”.
For `O=C(O)c1cc2ccc3ccccc3n2c1`, the ED50 [6] was “inactive”.
In the case of `COC(=O)c1nc2n(c1C(=O)O)-c1ccccc1OC2`, the ED50 [10] is reported as “inactive”.
Work on `COC(=O)c1nnn2c1c(=O)oc1ccccc12` yielded an inhibition in vivo at 10 mg/kg [8] of 50%.
With `CCOC(=O)c1cn2c(n1)c(=O)n(Cc1ccccc1)c1ccccc12` the ED50 [16] was “inactive”.
With `CS(=O)(=O)c1ccc2ccc3nc(C(=O)O)cn3c2c1` the ED50 [17] was 0.028 mg/kg and the inhibition in vivo at 10 mg/kg [8] was 50%.
`CCOC(=O)c1cn2c(cc(Cl)c3ccc(OC)cc32)n1` gave an ED50 [18] of 8 mg/kg.
Work on `CCn1c(=O)c2cc(C(=O)O)cn2c2cc(C)c(C)cc21` yielded an ED50 [19] of 0.03 mg/kg.
For `CCOC(=O)c1cn2c(n1)c(C#N)cc1ccccc12`, the ED50 [20] was “inactive”.
With `CCn1c(=O)c2c(C(=O)OC)c(C(=O)O)cn2c2ccccc21` the ED50 [21] was “inactive”.
In the case of `O=C(O)c1nc2ccc3ccccc3n2c1Br`, the ED50 [22] is reported as 4.19 mg/kg.
Compound `C[S+](=N)([O-])c1ccc2ccc3nc(C(=O)O)cn3c2c1` (centres undefined) has an ED50 [23] of 0.095 mg/kg.
For `O=C(O)c1cn2c(cc(-c3ccccc3)c3ccccc32)n1`, the ED50 [15] was “inactive”.
`CCOC(=O)c1cn2ccccc2n1` was tested, and the ED50 [6] was “inactive”.
Work on `O=C(O)c1cn2c(n1)sc1ccccc12` yielded an ED50 [24] of 0.33 mg/kg.
In the case of `O=C(O)c1cn2c(n1)c(-c1ccccc1)cc1ccccc12`, the ED50 [6] is reported as “inactive”.
`CCOC(=O)c1cn2c3ccccc3c(=O)n(CC)c2n1` was tested, and the ED50 [25] was “inactive”.
In the case of `NC(=O)c1cn2c(ccc3ccccc32)n1`, the ED50 [20] is reported as “inactive”.
`O=C(O)c1cn2c(n1)c(O)nc1cc(Cl)c(Cl)cc12` was tested, and the ED50 [16] was “inactive”.
With `Cc1c(C(=O)O)nc2ccc3ccc(Cl)cc3n12` the ED50 [26] was 1.99 mg/kg.
`O=C(O)c1nc2n(c1C(=O)O)-c1ccccc1OC2` was tested, and the ED50 [10] was “inactive”.
